Measured values: patent US11667649B2, “Heteroaromatic macrocyclic ether chemotherapeutic agents” (Nuvalent, Inc., priority 2020, dated 2023)

Tested on: TPM3-NTRK1-wt IC50 / primary target (e.g. CD74-ROS1-wt) IC50, Ba/F3 cells
Test: Cell assay TRKA selectivity (TRKA potency divided by primary target potency)
Assay type: cell-based
Settings: for TPM3-NTRK1-wt/CD74-ROS1-G2032R: TRKA selectivity ratio: TPM3-NTRK1-wt IC50 / CD74-ROS1-G2032R IC50, Ba/F3 cells; for TPM3-NTRK1-wt/CD74-ROS1-wt: TRKA selectivity ratio: TPM3-NTRK1-wt IC50 / CD74-ROS1-wt IC50, Ba/F3 cells; for TPM3-NTRK1-wt/EML4-ALK-L1196M-G1202R: TRKA selectivity ratio: TPM3-NTRK1-wt IC50 / EML4-ALK-L1196M-G1202R IC50, Ba/F3 cells; for TPM3-NTRK1-wt/EML4-ALK-wt: TRKA selectivity ratio: TPM3-NTRK1-wt IC50 / EML4-ALK-wt IC50, Ba/F3 cells
Text: Genes encoding CD74-ROS1 wild-type (wt), CD74-ROS1 G2032R, CD74-ROS1 S1986F, CD74-ROS1 L2026M, CD74-ROS1 D2033N, EML4-ALK wt (variant 1), EML4-ALK G1202R (variant 1), EML4-ALK L1196M/G1202R (variant 1), EML4-ALK G1202R/G1269A (variant 1), EML4-ALK G1202R/L1198F (variant 1), and TPM3-TRKA were synthesized at GeneRay, cloned into the retroviral construct pMSCV-puro (Biovector), and packaged into retroviral particles. The virus was used to infect Ba/F3 cells (RIKEN) at multiplicity of infection=1 for 1 day. Infected cells were rescued in media (RPMI-1640 with 10% fetal bovine serum and 1% streptomycin and penicillin) supplemented with mouse IL-3 (10 ng/mL) for 2 days, and stable cell lines were selected by IL-3 withdrawal and puromycin (0.8 μg/mL) for 7 days. Monoclones were selected by single-cell dilution in IL-3-free medium containing puromycin (0.8 μg/mL). Transformation of desired genes was confirmed by Sanger sequencing and western blot using the following antibodies: ROS1 (CST #3287), ALK (CST #3633), and pan-TRK (Abcam #76291).
Stable cells were plated at 1,000 cells/well (40 μL) in a 384-well plate for 1 day. Test compounds (40 nL) were then added in a 3-fold dilution series using the TECAN EVO200 liquid handler and incubated for 72 hours. Plates were equilibrated at room temperature for 15 minutes followed by addition of 40 μL CellTiter-Glo reagent (Promega). Luminescence was measured on a plate reader. Half-maximal inhibitory concentration (IC50) was calculated from percent inhibition and inhibitor concentration using four-parameter logistic regression. […] Exemplary data is given in Table 4 (nd is not determined).
TRKA selectivity was calculated by dividing a compound's TRKA potency by its primary target potency (e.g. TPM3-NTRK1-wt IC50/CD74-ROS1-wt IC50). Compound selectivity can be interpreted by binning ratio values: bin A for very high selectivity, ratio>30-fold; bin B for high selectivity, ratio>10-fold; bin C for moderate selectivity, ratio≥1; and bin D for low selectivity, ratio<1. […] (nd=not determined).

| Structure (SMILES) | TPM3-NTRK1-wt/CD74-ROS1-G2032R | TPM3-NTRK1-wt/CD74-ROS1-wt | TPM3-NTRK1-wt/EML4-ALK-L1196M-G1202R | TPM3-NTRK1-wt/EML4-ALK-wt |
| --- | --- | --- | --- | --- |
| CCn1ncc2c1-c1cnc(N)c(c1)O[C@H](C)c1cc(F)ccc1-n1ncc(C#N)c1C2 [Example 47, (19R)-22-amino-3-ethyl-16-fluoro-19-methyl-20-oxa-3,4,11,12,23-pentaazapentacyclo[19.3.1.0^2,^6.0^8,^12.0^13,^18]pentacosa-1(24),2(6),4,8,10,13,15,17,21(25),22-decaene-9-carbonitrile] | A (bin A for very high selectivity, ratio>30-fold) | A (bin A for very high selectivity, ratio>30-fold) | C (bin C for moderate selectivity, ratio≥1) | B (bin B for high selectivity, ratio>10-fold) |
| CCn1nc(C#N)c2c1-c1cnc(N)c(c1)O[C@H](C)c1cc(F)ccc1-c1nn(C)cc1C2 [Example 156, (19R)-22-amino-3-ethyl-16-fluoro-10,19-dimethyl-20-oxa-3,4,10,11,23-pentaazapentacyclo[19.3.1.0^2,^6.0^8,^12.0^13,^18]pentacosa-1(24),2(6),4,8,11,13,15,17,21(25),22-decaene-5-carbonitrile] |  |  | C (bin C for moderate selectivity, ratio≥1) |  |
| CC1Oc2cc(cnc2N)-c2c(cnn2CCF)Cn2ccnc2-c2ccc(F)cc21 (stereo not shown) [Example 39, 16-fluoro-3-(2-fluoroethyl)-19-methyl-20-oxa-3,4,8,11,23-pentaazapentacyclo[19.3.1.0^2,^6.0^8,^12.0^13,^18]pentacosa-1(24),2(6),4,9,11,13,15,17,21(25),22-decaen-22-amine] | A (bin A for very high selectivity, ratio>30-fold) | A (bin A for very high selectivity, ratio>30-fold) | C (bin C for moderate selectivity, ratio≥1) | A (bin A for very high selectivity, ratio>30-fold) |
| CCn1ncc2c1-c1cnc(N)c(c1)O[C@H](C)c1cc(F)ccc1-n1nc(Cl)cc1C2 [Example 74, (19R)-10-chloro-3-ethyl-16-fluoro-19-methyl-20-oxa-3,4,11,12,23-pentaazapentacyclo[19.3.1.0^2,^6.0^8,^12.0^13,^18]pentacosa-1(24),2(6),4,8,10,13,15,17,21(25),22-decaen-22-amine] | A (bin A for very high selectivity, ratio>30-fold) | A (bin A for very high selectivity, ratio>30-fold) | B (bin B for high selectivity, ratio>10-fold) | A (bin A for very high selectivity, ratio>30-fold) |
| C[C@H]1Oc2cc(cnc2N)-c2c(C#N)nn(C)c2Cc2cc(F)cnc2-c2ccc(F)cc21 [Example 105, (20R)-23-amino-10,17-difluoro-5,20-dimethyl-21-oxa-4,5,12,24-tetraazapentacyclo[20.3.1.0^2,^6.0^8,^13.0^14,^19]hexacosa-1(25),2(6),3,8(13),9,11,14,16,18,22(26),23-undecaene-3-carbonitrile] | A (bin A for very high selectivity, ratio>30-fold) | A (bin A for very high selectivity, ratio>30-fold) | B (bin B for high selectivity, ratio>10-fold) | A (bin A for very high selectivity, ratio>30-fold) |
| C[C@H]1Oc2cc(cnc2N)-c2c(cnn2CC2CC2)Cc2cc(C(F)F)nn2-c2ccc(F)cc21 [Example 130, (19R)-3-(cyclopropylmethyl)-10-(difluoromethyl)-16-fluoro-19-methyl-20-oxa-3,4,11,12,23-pentaazapentacyclo[19.3.1.0^2,^6.0^8,^12.0^13,^18]pentacosa-1(24),2(6),4,8,10,13,15,17,21(25),22-decaen-22-amine] | A (bin A for very high selectivity, ratio>30-fold) | A (bin A for very high selectivity, ratio>30-fold) | B (bin B for high selectivity, ratio>10-fold) | A (bin A for very high selectivity, ratio>30-fold) |
| CCc1ncn2c1-c1cnc(N)c(c1)O[C@H](C)c1cc(F)ccc1-c1nn(C)cc1C2 [Example 50, (19R)-3-ethyl-16-fluoro-10,19-dimethyl-20-oxa-4,6,10,11,23-pentaazapentacyclo[19.3.1.0^2,^6.0^8,^12.0^13,^18]pentacosa-1(24),2,4,8,11,13,15,17,21(25),22-decaen-22-amine] | A (bin A for very high selectivity, ratio>30-fold) | A (bin A for very high selectivity, ratio>30-fold) | B (bin B for high selectivity, ratio>10-fold) | A (bin A for very high selectivity, ratio>30-fold) |
| CCn1ncc2c1-c1cnc(N)c(n1)OC(C)c1cc(F)ccc1-c1nccn1C2 (stereo not shown) [Example 163, 3-ethyl-16-fluoro-19-methyl-20-oxa-3,4,8,11,23,25-hexaazapentacyclo[19.3.1.0^2,^6.0^8,^12.0^13,^18]pentacosa-1(24),2(6),4,9,11,13,15,17,21(25),22-decaen-22-amine] | A (bin A for very high selectivity, ratio>30-fold) | A (bin A for very high selectivity, ratio>30-fold) | C (bin C for moderate selectivity, ratio≥1) | A (bin A for very high selectivity, ratio>30-fold) |
| C[C@H]1Oc2cc(cnc2N)-c2c(nn(C)c2C2CCC2)Cc2ccnn2-c2ccc(F)cc21 [Example 174, (19R)-3-cyclobutyl-16-fluoro-4,19-dimethyl-20-oxa-4,5,11,12,23-pentaazapentacyclo[19.3.1.0^2,^6.0^8,^12.0^13,^18]pentacosa-1(24),2,5,8,10,13,15,17,21(25),22-decaen-22-amine] | B (bin B for high selectivity, ratio>10-fold) | A (bin A for very high selectivity, ratio>30-fold) | C (bin C for moderate selectivity, ratio≥1) | A (bin A for very high selectivity, ratio>30-fold) |
| CCn1ncc2c1-c1cnc(N)c(n1)OC(C)c1cc(F)ccc1-c1c(cnn1C)C2 (stereo not shown) [Example 164, 3-ethyl-16-fluoro-11,19-dimethyl-20-oxa-3,4,10,11,23,25-hexaazapentacyclo[19.3.1.0^2,^6.0^8,^12.0^13,^18]pentacosa-1(24),2(6),4,8(12),9,13,15,17,21(25),22-decaen-22-amine] | A (bin A for very high selectivity, ratio>30-fold) |  | C (bin C for moderate selectivity, ratio≥1) | B (bin B for high selectivity, ratio>10-fold) |
| Cc1nc2c(s1)Cn1cnc(C#N)c1-c1cnc(N)c(c1)O[C@H](C)c1cc(F)ccc1-2 [Example 65, (19R)-22-amino-16-fluoro-10,19-dimethyl-20-oxa-9-thia-4,6,11,23-tetraazapentacyclo[19.3.1.0^2,^6.0^8,^12.0^13,^18]pentacosa-1(24),2,4,8(12),10,13(18),14,16,21(25),22-decaene-3-carbonitrile] | A (bin A for very high selectivity, ratio>30-fold) | A (bin A for very high selectivity, ratio>30-fold) | B (bin B for high selectivity, ratio>10-fold) | A (bin A for very high selectivity, ratio>30-fold) |
